Reference: US20260097047A1, “Small molecule inhibitors of the ribosome biogenesis factor NVL2” (Board of Regents, The University of Texas System, priority 2023, published 2026)

Key:
HCT116 cells = assay: Genome-wide CRISPR/Cas9 knockout screen in HCT116 cells; assay type: cell-based, human; settings: 1 μM pulsed intermittently over 21 days
Text: To better understand how inhibition of NVL by MM017 leads to cell death, we performed a genome wide pooled CRISPR/Cas9 knockout screen in HCT116 cells using a library of guide RNAs targeting 19,114 genes. Cells were pulsed intermittently with vehicle or MM017 over 21 days, at which point MM017 treated cells had undergone 9.79 fewer population doublings. Massively parallel sequencing of PCR products amplified from genomic DNA was used to determine relative levels of sgRNA sequences to infer the relative impact of each gene on compound sensitivity. […]
HCT116 cells stably expressing Cas9 were generated by infecting cells with lentiCas9-Blast (Addgene #52962) and selection with 10 μg/mL blasticidin. […] Viable cells were counted at each passage and collected after 21 days. Genomic DNA was extracted using Blood & Cell Culture DNA Maxi kit (QIAGEN #13362), and concentrations were determined using Quant-iT PicoGreen dsDNA assay kits (Invitrogen #P7589). sgRNAs were PCR-amplified using 28 cycles from approximately 650 μg genomic DNA (10 μg DNA/100 μL reaction) using Ex Taq DNA Polymerase (TaKaRa #RR001B), 8 staggered P5 primers, and 1 unique P7 index primer per sample as described in the “Protocol PCR of sgRNAs from gDNA for Illumina sequencing” published by the Broad Institute (51). […] The mapping reads were counted for each sgRNA using SAMtools (v1.9) with the options “-F 2308-q 1”. […]

HCT116 NVL^WT tumors = assay: Efficacy study: HCT116 NVL wild type xenografts; assay type: in vivo, mouse; settings: 35 mg/kg IP twice a day for 21 days
Method: Having established the kinetics of MM927 mediated NVL inhibition in xenograft tumors, we administered 35 mg/kg MM927 IP twice a day for 21 days to mice harboring tumors derived from either HCT116 NVL wild type or NVL^R403W cells. […] Taken together, we concluded that the potent, and bioavailable analog MM927 reduces tumor growth in mouse xenografts by inhibiting NVL without toxicity.
Efficacy study: Five million parental HCT116 cells or HCT116 NVL^R403W in a volume of 0.1 mL were implanted in the right flank. Tumor volumes were measured every 2 to 4 days with calipers. Volume is calculated as [(L*W^2)*3.14]/6. When volumes reached ˜110 mm^3, treatment was started with 35 mg/kg MM927 or vehicle control (0.2 mL/mouse) twice a day for 21 days. Mice were euthanized at the end of the 21-day treatment period or when any tumor reached 2 cm in its largest diameter, in agreement with the approved animal protocol. At the end of treatment, blood and tumor tissue were collected for pharmacokinetic analysis, measurement of complete blood counts, and blood chemistry measurements as described. Serum alanine transaminase and blood urea nitrogen were analyzed using VITROS MicroSlide technology.

Row | Compound | fewer population doublings than vehicle (HCT116 cells) | endpoint tumor burden, NVL WT (HCT116 NVL^WT tumors) | rate of growth of NVL^WT tumors (HCT116 NVL^WT tumors)
1 | COCCN1C(=O)c2ccccc2Sc2cc(NC(=O)c3ccoc3)ccc21 [MM017] | 9.79 |  | 
2 | CC#CCN1C(=O)c2ccc(F)cc2Sc2cc(NC(=O)c3ccc4oc(=O)n(C)c4c3)ccc21 [MM927, N-(10-(But-2-yn-1-yl)-3-fluoro-11-oxo-10,11-dihydrodibenzo[b,f][1,4]thiazepin-7-yl)-3-methyl-2-oxo-2,3-dihydrobenzo[d]oxazole-5-carboxamide] |  | significantly reduced NVL WT tumor burden | significantly reduced the rate of growth
